Patent US20230271969A1, “NITROGEN-CONTAINING FUSED RING DERIVATIVE INHIBITOR, PREPARATION METHOD THEREFOR AND USE THEREOF” (Shanghai Hansoh Biomedical Co., Ltd., priority 2020, published 2023)

What was measured:
NK3 receptors = biological target: T1, NK3 receptors (Homo sapiens, UniProt P29371); assay: Calcium ion fluidity (FLIPR) in cells with stable expression of NK3 receptors; format: cell-based; conditions: calcium signal, antagonist mode, read-out: NK3R IC50 (nM) FLIPR
T1 construct: expressed in transfected cells
T1 sequence (P29371 1-465): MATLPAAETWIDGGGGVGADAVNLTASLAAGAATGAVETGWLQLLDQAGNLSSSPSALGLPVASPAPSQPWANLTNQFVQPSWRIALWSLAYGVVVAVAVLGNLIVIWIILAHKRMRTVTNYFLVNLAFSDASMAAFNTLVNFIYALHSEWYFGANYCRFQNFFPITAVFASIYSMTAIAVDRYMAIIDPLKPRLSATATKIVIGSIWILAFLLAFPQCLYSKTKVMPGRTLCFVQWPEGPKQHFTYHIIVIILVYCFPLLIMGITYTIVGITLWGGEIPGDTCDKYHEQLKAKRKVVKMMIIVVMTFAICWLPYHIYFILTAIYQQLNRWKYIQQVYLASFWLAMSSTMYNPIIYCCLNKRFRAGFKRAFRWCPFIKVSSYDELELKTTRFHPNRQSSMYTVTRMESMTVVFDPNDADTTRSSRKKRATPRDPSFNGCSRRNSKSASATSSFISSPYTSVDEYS

[1] = test system: luteinizing hormone (LH) content in plasma; assay: Luteinizing hormone (LH) content in plasma of bilateral ovariectomy (OVX) rats; format: in vivo; conditions: oral 30 mg/kg, plasma LH 0-8 h
From the text: Test Example 5. Effect of the Compounds of the Present Invention on Luteindzing Hormone (LH) Content in Plasma of Bilateral Ovariectomy (OVX) Rats
The objective of this test example was to determine the effect of the compounds on luteinizing hormone (LH) in plasma of bilateral ovarnectomy (OVX) rats.
10-Week-old female bilateral ovariectomy SD rats were purchased from Beijing Vital River Laboratory Animal Technology Co., Ltd. The animals were housed in a SPF grade animal facility with 5 SD rats per cage. The cages, bedding, feed and water were disinfected at high temperatures before use. All animals had free access to food and water.
Drug administration by groups: 10-Week-old female SD rats were subjected to bilateral ovariectomy and used in experiments after 3 weeks. Each SD rat was fasted overnight before the experiment, and then randomly divided into groups (3 rats per group) before the drug administration. Different test compounds were administered orally to each drug administration group at a dose of 30 mg/kg and a volume of 10 mL/kg.
Sample collection: 0.2-0.3 mL of whole blood of the SD rats in each group was collected at 0, 0.5, 1, 2, 4, 8 hours before and after the drug administration, and placed in EDTA-K2 tubes. The tubes were inverted and mixed well, and centrifuged at 4° C. at 5,000 rpm for 5 min. Then the plasma was separated and stored in an ultra-low temperature freezer (−80±10° C.).
Sample detection: All reagents, samples and ELISA plates were equilibrated at room temperature (20-25° C.) for at least 30 min. The sample was thawed, vortexed and centrifuged for use. The standard curve was prepared with Assay buffer C according to the concentration sequence of 10, 5, 2.5, 1.25, 0.625, 0.313 and 0. The sample was diluted by two folds with Sample dilution buffer G and left to stand at room temperature for 10 min. […] The OD values of each well was read at a wavelength of 450 nm with a microplate reader.
The standard curve was plotted by using Graphpad, and the concentration of the sample was calculated. […]

SMILES	IC50 (NK3 receptors) [nM]	ΣAUC(ΔLH/LH · h, Mean ± SD) [1]
[2H]c1cc(C(=O)N2CCn3c(-c4nc(Cl)ns4)nnc3[C@H]2C)ccc1F [Example 56, (R)-(3-(3-Chloro-1,2,4-thiadiazol-5-yl)-8-methyl-5,6-dihydro-[1,2,4]triazolo[4,3-a]pyrazin-7(8H)-yl)(4-fluorophenyl-3-d)methanone]	155	
C[C@@H]1c2nnc(-c3nc4cnc(Cl)cc4s3)n2CCN1C(=O)c1ccc(F)cc1 [Example 37, (R)-(3-(6-Chlorothiazolo[4,5-c]pyridin-2-yl)-8-methyl-5,6-dihydro-[1,2,4]triazolo[4,3-a]pyrazin-7(8H)-yl)(4-fluorophenyl)methanone]	48.9	−0.52 ± 2.24 ΔLH/LH · h
